Structures are written as SMILES. Several values for one entry are separate records, joined by “and”; a condition that tells them apart may be missing. Identical values can stand only once. Like-named read-outs stand apart in the source and are kept apart here. Bounds are passed on as bounds.

Series [1] has as its system mice at terminal stages of botulism (2.2x LD50 BoNT/A, i.v.). To be noted: mouse, in vivo.
For series [2] the following is noted: cited from earlier work; for Brain penetration: in vivo.
In series [3] the test system is animal models of botulism. To be noted: in vivo; cited from earlier work.
In series [4] the test system is mice at terminal stages of botulism (2.2x LD50 BoNT/A, i.v.). The conditions noted are these: mouse, in vivo. This is another data set of the same source.
For series [5] the following is noted: mouse, in vivo, sc, 2 mg/kg; cited from earlier work.
The next series concerns patients with LEMS. To be noted: human, in vivo; cited from earlier work.
The next series concerns healthy mice. To be noted: mouse, in vivo.
For series [6] the following is noted: in vivo, po; cited from earlier work.

As to `Nc1ccnc(N)c1` [2,4-DAP, 2,4-diaminopyridine], the “Relative effects on TV versus RR” value in series [1] was “increased TV and RR by roughly equal proportions”. Besides, the Brain penetration entry in series [2] is given as “poor brain penetration”.

Regarding `Nc1ccnc(F)c1` [2F-4AP, 4-amino-2-fluoropyridine], the “Effects on ventilatory parameters (MV, TV, RR)” value in series [1] is recorded as “indistinguishable from vehicle”.

Consider `Nc1cncc(N)c1N` [3,4,5-TAP, 3,4,5-triaminopyridine], for which the “Relative effects on TV versus RR” value in series [1] was “increased TV and RR by roughly equal proportions”. Further, in series [2], the Brain penetration result is given as “poor brain penetration”.

With `Nc1ccncc1N` [3,4-DAP, 3,4-diaminopyridine], the “Exposure required for reversal of botulism symptoms” value in series [3] is listed as 125 ng/mL. Besides, in series [4], the Blood gas levels entry was “did not improve”; the Lactate result was “did not show any significant improvement”; the “Time to improvement in blood gas levels” value is 45 min and < 30 min; the “Time to reversal of respiratory acidosis (pCO2, HCO3-, pH, lactate)” value is on record as at most 30 minutes. In series [4], the “pCO2, pH and HCO3-” value was “improved”. For the same compound, in series [4] (sc), the “Effect on pO2 levels” value is “Neither intoxication nor 3,4-DAP treatment had an effect on pO2 levels”. In series [1], the “Effect on ventilatory parameters (TV, RR, MV, mid-expiratory flow, peak inspiratory flow, peak expiratory flow, expired volume, enhanced pause)” value is on record as “significantly improved”; the “Lowest dose to produce an unambiguous peak response in MV” value was 0.25 mg/kg; the “Relative effects on TV versus RR” value was “more potent effects on TV”; the “Time after treatment at which MV significantly improved” value was found to be 10 min. In series [1], the “Time after treatment to maximum effect on MV” value lay in the range of 25 to 30 min, the “Time after which ventilatory parameters began to decline” value is “approximately 30 minutes” and the “Time up to which all ventilatory parameters remained significantly improved compared with vehicle” value turned out to be 90 min. For the same compound, in series [1] (sc), the “Doses that increased both ventilatory parameters and respiration” value is on record as at least 0.25 mg/kg. Further, the Maximum blood levels in series [5] is 840 ng/mL. In the series with patients with LEMS, the “Exposure needed for typical patients with LEMS” value is 32 ng/mL. For the same compound, in the series on healthy mice, the “Effect on MV” value is “no changes in MV”, the “Effect on RR” value is on record as “significantly increased RR” and the “Effect on TV” value is given as “concomitant reductions in TV”.

Consider `[2H]c1nc([2H])c(N)c(N)c1[2H]` [3,4-DAP-d3, 3,4-diaminopyridine-d3], for which the “Relative effects on TV versus RR” value in series [1] is reported as “more potent effects on TV”. Moreover, the “CNS permeability / brain penetration” value in series [2] (not told) is “low central nervous system (CNS) permeability”.

As to `Nc1c(F)cncc1F` [3,5DF-4AP, 4-amino-3,5-difluoropyridine], the “Effects on ventilatory parameters (MV, TV, RR)” value in series [1] is “indistinguishable from vehicle”.

With `Nc1ccncc1F` [3F-4AP, 4-amino-3-fluoropyridine], in series [1], the “Relative effects on TV versus RR” value is reported as “more potent effects on RR”; the “Symptomatic benefits compared with the other effective aminopyridines” value is “modest and short in duration”. Also, in series [2] (not told), the CNS permeability result was “CNS-permeable”.

`Nc1ccncc1` [4-AP, 4-aminopyridine]: in series [1], the “Relative effects on TV versus RR” value was “increased TV and RR by roughly equal proportions”. For the same compound, the “Blood brain barrier permeability relative to 3,4-DAP” value in series [2] (not told) is given as “approximately sixfold greater”. Besides, in the series on healthy mice, the “Effect on MV” value was “no changes in MV”, the “Effect on RR” value is reported as “significantly increased RR” and the “Effect on TV” value was “concomitant reductions in TV”.

Regarding `[2H]c1nc([2H])c([2H])c(N)c1[2H]` [4-AP-d4, 4-aminopyridine-d4], the “Relative effects on TV versus RR” value in series [1] was “increased TV and RR by roughly equal proportions”.

Regarding `Nc1ccncc1N` [amifampridine], the Maximum blood levels in series [6] was 38.6 ± 9.2 ng/mL.

(Values after publication PMC10801772 (The Journal of Pharmacology and Experimental Therapeutics, 2024).)
